PMC3148848 (Journal of medicinal chemistry, 2009)

Target: SARS-CoV PLpro (Severe acute respiratory syndrome coronavirus, UniProt P0C6X7)
Assay type: biochemical

## Cc1ccccc1C(=O)N[C@H](C)c1ccc2ccccc2c1 [lead]
  mode of inhibition (kinetic studies): reversible inhibitor
